# pEC50: −log10 of the molar value.
# How the values were obtained:
# SF268 = test: CellTiter-Glo cell proliferation assay; assay type: cell-based; settings: Homo sapiens, SF-268, Glioma, WT
# BT474 = test: CellTiter-Glo cell proliferation assay; assay type: cell-based; settings: Homo sapiens, BT-474, Breast, HER2 Amplified
# LXFL-529 = test: CellTiter-Glo cell proliferation assay; assay type: cell-based; settings: Homo sapiens, Lung(NSCLC), Helical-HET.542E > K
# DLD-1 = test: CellTiter-Glo cell proliferation assay; assay type: cell-based; settings: Homo sapiens, Colon, KRAS/HET.545E > K
# ZR75-30 = test: CellTiter-Glo cell proliferation assay; assay type: cell-based; settings: Homo sapiens, ZR-75-30, Breast, WT
# A2058 = test: CellTiter-Glo cell proliferation assay; assay type: cell-based; settings: Homo sapiens, Melanoma, PTEN/B-Raf
# EVSA-T = test: CellTiter-Glo cell proliferation assay; assay type: cell-based; settings: Homo sapiens, Breast, PTEN
# SW403 = test: CellTiter-Glo cell proliferation assay; assay type: cell-based; settings: Homo sapiens, SW-403, Colon, KRAS/HET.546Q > K
# KP4x1 = test: CellTiter-Glo cell proliferation assay; assay type: cell-based; settings: Pancreatic, K-RAS
# CAMA-1 = test: CellTiter-Glo cell proliferation assay; assay type: cell-based; settings: Homo sapiens, Breast, PTEN*
# [1] = system: SW48 PIK3CA E545K knock-in mutant subclone; test: four day CellTiter-Glo viability assay, SW48 isogenic cell line set; settings: Homo sapiens, SW48, 96 h, read-out: Viability EC50
# Source text: (§2) SW48 parental cells and knock-in mutant subclones harboring common PIK3CA hotspot mutations E545K or H1047R were obtained from Horizon Discovery.
# H596 = test: CellTiter-Glo cell proliferation assay; assay type: cell-based; settings: Homo sapiens, NCI-H596, Lung(NSCLC), Helical-HET.545E > K, HET.997L > P
# EFO21 = test: CellTiter-Glo cell proliferation assay; assay type: cell-based; settings: Homo sapiens, EFO-21, Ovarian, PTEN
# [2] = system: 537 MEL melanoma cancer tumor xenografts; test: In vivo mouse tumor xenograft efficacy; parameters: species or system mice; settings: PO daily (QD), 21 days
# Experimental: (§1) Xenografts were initiated with cancer cells. […] Volume was calculated using the formula: […]
# [3] = system: PC3 prostate cancer tumor xenografts; test: In vivo mouse tumor xenograft efficacy; parameters: species or system mice
# Experimental: as §1
# [4] = system: MCF-7 neo/HER2 breast cancer tumor xenografts; test: In vivo mouse tumor xenograft efficacy; parameters: species or system mice; settings: for % TGI@ day 21: QD
# Experimental: as §1
# [5] = system: 22RV1 prostate cancer tumor xenografts; test: In vivo mouse tumor xenograft efficacy; parameters: species or system mice; settings: PO daily (QD), 24 days
# Experimental: as §1
# [6] = system: KPL4 breast tumor xenografts; test: In vivo mouse tumor xenograft efficacy; parameters: species or system mice
# Experimental: as §1
# [7] = system: NCI-H1975 non-small cell lung cancer (NSCLC) tumor xenografts; test: In vivo mouse tumor xenograft efficacy; parameters: species or system mice; settings: PO daily (QD), 24 day treatment period; versus vehicle
# Experimental: as §1
# [8] = system: HM-7 colorectal cancer tumor xenografts; test: In vivo mouse tumor xenograft efficacy; parameters: species or system mice
# Experimental: as §1
# H2171 = test: CellTiter-Glo cell proliferation assay; assay type: cell-based; settings: Homo sapiens, NCI-H2171, Lung(SC), K-RAS
# SW48 parental cells = test: four day CellTiter-Glo viability assay, SW48 isogenic cell line set; settings: Homo sapiens, SW48, 96 h, read-out: Viability EC50
# Source text: as §2
# H1299 = test: CellTiter-Glo cell proliferation assay; assay type: cell-based; settings: Homo sapiens, NCI-H1299, Lung(NSCLC), N-RAS
# HPAC = test: CellTiter-Glo cell proliferation assay; assay type: cell-based; settings: Homo sapiens, Pancreatic, K-RAS
# HT-29 = test: CellTiter-Glo cell proliferation assay; assay type: cell-based; settings: Homo sapiens, Colon, K-RAS
# MDA-MB-453 = test: CellTiter-Glo cell proliferation assay; assay type: cell-based; settings: Homo sapiens, Breast, Kinase-HET.1047H > R, HET.350D > N
# CAL51 = test: CellTiter-Glo cell proliferation assay; assay type: cell-based; settings: Homo sapiens, CAL-51, Breast, PTEN/HET.542E > K
# Experimental: (§3) Cell Culture Medium: RPMI or DMEM high glucose, 10% Fetal Bovine Serum, 2 mM L-Glutamine, P/S. Incubate O/N (overnight) at 37° C., 5% CO2.
# (§4) Drug Addition to Cells, Cell Plate (1:10 dilution): Add 6 μl of media+compound directly to cells (54 μl of media on the cells already). Incubate 3 days at 37° C., 5% CO2 in an incubator that will not be opened often.
# (§5) Day 5—Develop Plates, Thaw Cell Titer Glo Buffer at room temperature: Remove Cell Plates from 37° C. and equilibrate to room temperature for about 30 minutes. Add Cell Titer-Glo® Buffer to Cell Titer-Glo® Substrate (bottle to bottle). Add 30 μl Cell Titer-Glo® Reagent (Promega cat.#G7572) to each well of cells. Place on plate shaker for about 30 minutes. Read luminescence on Analyst HT Plate Reader (half second per well).
# PI3K alpha H1047R mutant = PI3K alpha H1047R mutant (Homo sapiens, UniProt P42336, H1047R); settings: relative to PI3K alpha
# PI3K alpha H1047R mutant, sequence (P42336 whole entry H1047R): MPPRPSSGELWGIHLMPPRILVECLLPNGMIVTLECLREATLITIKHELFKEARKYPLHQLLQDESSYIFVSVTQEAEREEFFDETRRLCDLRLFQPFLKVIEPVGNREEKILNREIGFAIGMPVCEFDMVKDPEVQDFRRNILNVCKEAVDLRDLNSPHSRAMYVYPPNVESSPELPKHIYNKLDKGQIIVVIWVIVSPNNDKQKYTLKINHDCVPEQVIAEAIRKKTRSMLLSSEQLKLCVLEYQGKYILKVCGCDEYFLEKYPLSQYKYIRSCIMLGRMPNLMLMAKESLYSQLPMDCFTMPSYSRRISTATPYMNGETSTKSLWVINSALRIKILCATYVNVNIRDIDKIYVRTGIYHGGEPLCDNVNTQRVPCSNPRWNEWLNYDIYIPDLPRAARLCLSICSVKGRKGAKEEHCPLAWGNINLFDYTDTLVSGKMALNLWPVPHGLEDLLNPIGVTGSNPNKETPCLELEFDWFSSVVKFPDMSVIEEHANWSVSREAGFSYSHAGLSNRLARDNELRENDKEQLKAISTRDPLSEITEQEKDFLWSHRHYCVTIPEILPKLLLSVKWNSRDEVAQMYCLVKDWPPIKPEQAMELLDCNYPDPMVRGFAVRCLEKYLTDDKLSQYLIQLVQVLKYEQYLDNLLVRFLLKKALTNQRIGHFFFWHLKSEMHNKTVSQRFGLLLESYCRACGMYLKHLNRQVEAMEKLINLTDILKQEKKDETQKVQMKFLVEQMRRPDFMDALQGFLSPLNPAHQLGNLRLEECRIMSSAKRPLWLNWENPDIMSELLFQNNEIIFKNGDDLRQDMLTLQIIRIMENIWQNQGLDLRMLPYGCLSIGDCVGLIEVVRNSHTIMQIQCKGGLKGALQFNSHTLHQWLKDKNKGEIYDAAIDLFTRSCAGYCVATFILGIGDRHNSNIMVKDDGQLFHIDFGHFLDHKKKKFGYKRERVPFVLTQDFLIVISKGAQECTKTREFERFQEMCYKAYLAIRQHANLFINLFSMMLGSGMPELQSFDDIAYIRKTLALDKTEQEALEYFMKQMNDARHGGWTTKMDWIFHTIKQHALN
# PI3K alpha H1047R mutant, sequence (P27986 whole entry partner): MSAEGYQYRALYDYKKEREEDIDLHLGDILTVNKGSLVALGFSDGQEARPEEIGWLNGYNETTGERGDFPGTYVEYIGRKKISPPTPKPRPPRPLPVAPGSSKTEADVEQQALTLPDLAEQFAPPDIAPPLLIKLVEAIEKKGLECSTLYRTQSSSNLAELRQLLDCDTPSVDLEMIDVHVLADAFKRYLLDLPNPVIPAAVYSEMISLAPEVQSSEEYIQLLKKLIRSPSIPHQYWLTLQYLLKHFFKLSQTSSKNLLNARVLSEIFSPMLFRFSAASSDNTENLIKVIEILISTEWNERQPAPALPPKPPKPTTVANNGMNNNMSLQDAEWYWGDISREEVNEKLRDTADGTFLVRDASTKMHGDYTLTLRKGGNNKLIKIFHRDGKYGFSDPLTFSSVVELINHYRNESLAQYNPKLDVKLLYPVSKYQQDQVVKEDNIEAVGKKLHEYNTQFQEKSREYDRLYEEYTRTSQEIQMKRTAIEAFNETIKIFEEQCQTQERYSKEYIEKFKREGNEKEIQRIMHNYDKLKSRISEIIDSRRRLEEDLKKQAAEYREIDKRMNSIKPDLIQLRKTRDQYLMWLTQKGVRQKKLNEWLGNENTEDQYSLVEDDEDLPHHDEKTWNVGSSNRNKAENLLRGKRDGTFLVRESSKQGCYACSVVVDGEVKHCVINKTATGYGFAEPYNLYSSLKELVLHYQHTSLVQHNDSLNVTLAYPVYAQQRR
# Experimental: After an incubation time of 30 minutes at room temperature, the reactions were stopped by the addition of GRP-1 and PIP3-TAMRA probe (Echelon-Inc., Salt Lake City, Utah.) 100 nM and 5 nM final concentrations respectively. Read with standard cut-off filters for the rhodamine fluorophore (λex=530 nm; λem=590 nm) in 384-well black low volume Proxiplates® (PerkinElmer, Wellesley, Mass.) Fluorescence polarization values were plotted as a function of the protein concentration. EC50 values were obtained by fitting the data to a four-parameter equation using KaleidaGraph® software (Synergy software, Reading, Pa.). This experiment also establishes the appropriate protein concentration to use in subsequent competition experiments with inhibitors.
# After an incubation time of 30 minutes at room temperature, the reactions were stopped by the addition of GRP-1 and PIP3-TAMRA probe (Echelon-Inc., Salt Lake City, Utah.) 100 nM and 5 nM final concentrations respectively.
# The compound was serially diluted in 100% DMSO. The kinase reaction was incubated for 1 h at room temperature, and the reaction was terminated by the addition of PBS. IC50 values were subsequently determined using sigmoidal dose-response curve fit (variable slope).
# EFM-19 = test: CellTiter-Glo cell proliferation assay; assay type: cell-based; settings: Homo sapiens, Breast, Kinase-HOM.1047H > L
# Experimental: as §3, §4, §5
# [9] = system: SKOV3 ovarian tumor xenografts; test: In vivo mouse tumor xenograft efficacy; settings: PO daily (QD), 21 day treatment period
# MO59K = test: CellTiter-Glo cell proliferation assay; assay type: cell-based; settings: Glioma, PTEN/KRAS
# H522 = test: CellTiter-Glo cell proliferation assay; assay type: cell-based; settings: Homo sapiens, NCI-H522, Lung(NSCLC), WT
# HS 578T-1x2 = test: CellTiter-Glo cell proliferation assay; assay type: cell-based; settings: Breast, WT
# [10] = system: MCF-7 breast tumor xenografts; test: In vivo mouse tumor xenograft efficacy; parameters: species or system mice
# Experimental: Fulvestrant was dosed subcutaneously with 5 mg of drug once a week (qw) for 3 weeks.
# Paclitaxel was dosed intravenously every 4 days for 5 cycles with 7.5 mg/kg of drug.
# as §1
# H417 = test: CellTiter-Glo cell proliferation assay; assay type: cell-based; settings: Homo sapiens, NCI-H417, Lung(SC), Helical-HET.546Q > K, HOM.391I > M
smiles,measurement,setting,value
"Cc1nc(-c2cn3c(n2)-c2ccc(-c4cnn(C(C)(C)C(N)=O)c4)cc2OCC3)n(C(C)C)n1 [GDC-0032, 2-(4-(2-(1-isopropyl-3-methyl-1H-1,2,4-triazol-5-yl)-5,6-dihydrobenzo[f]imidazo[1,2-d][1,4]oxazepin-9-yl)-1H-pyrazol-1-yl)-2-methylpropanamide]",pEC50,SF268,5.97
same,pEC50,BT474,7.08
same,pEC50,LXFL-529,7.24
same,pEC50,DLD-1,5.60
same,pEC50,ZR75-30,7.68
same,pEC50,A2058,5.03
same,pEC50,EVSA-T,5.95
same,pEC50,SW403,6.84
same,pEC50,KP4x1,5.53
same,pEC50,CAMA-1,5.25
same,pEC50,[1],8.30
same,pEC50,H596,7.24
same,pEC50,EFO21,5.00
same,tumor volume change,[2],dose-dependent decrease in tumor volume
same,anti-tumor efficacy,"[3]; doses <12.5 mg/kg, daily dosing for 14 days",not efficacious
same,anti-tumor response,"[3]; highest dose tested (25 mg/kg), daily, 14 days",tumor stasis
same,tumor response,"[4]; 22.5 mg/kg, after 10 days of treatment, versus vehicle",increased tumor regressions
same,tumor volume change,"[4]; PO daily (QD), 20 days, nude mice",dose dependent decrease in tumor volume
same,% TGI@ day 21,[4]; 5.0 mg/kg,57%
same,% TGI@ day 21,[4]; 10 mg/kg,83%
same,% TGI@ day 21,[4]; 20 mg/kg,83%
same,tumor volume change,[5],dose-dependent decrease in tumor volume
same,tumor response,"[6]; 25 mg/kg, end of treatment on day 21, versus vehicle",increased tumor regressions
same,tumor volume change,"[6]; PO daily (QD), 21 days, SCID beige mice",dose dependent decrease in tumor volume
same,tumor volume change,[7],dose-dependent decrease in tumor volume
same,tumor response,"[8]; 25 mg/kg, end of treatment on day 7, versus vehicle",increased tumor regressions
same,tumor volume change,"[8]; PO daily (QD), 7 days",dose dependent decrease in tumor volume
same,pEC50,H2171,5.84
same,pEC50,SW48 parental cells,7.66
same,pEC50,H1299,5.76
same,pEC50,HPAC,6.19
same,pEC50,HT-29,7.12
same,pEC50,MDA-MB-453,7.36
same,pEC50,CAL51,6.49
same,PI3K alpha H1047R mutant,PI3K alpha H1047R mutant,0.4x
same,pEC50,EFM-19,7.89
same,tumor volume change,[9],dose-dependent decrease in tumor volume
same,pEC50,MO59K,5.30
same,pEC50,H522,5.00
same,pEC50,HS 578T-1x2,5.68
same,tumor volume change,"[10]; PO daily (QD), 21 days, nude mice",dose-dependent decrease in tumor volume
same,tumor response,"[10]; all doses of GDC-0032 tested, versus vehicle",Increased tumor regressions
same,pEC50,H417,5.89

# Reference: US9107926B2, “Mutant selectivity and combinations of a phosphoinositide 3-kinase inhibitor compound and chemotherapeutic agents for the treatment of cancer” (Genentech, Inc., priority 2012, dated 2015)
